Assay results from PubChem BioAssay (NCI).
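The compound was tested at five concentrations on cells cultured in 96-well plates, with a 48-hour exposure period. The concentration for 50% growth inhibition is given as GI50. TGI is the concentration that stops growth completely.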

Key:
Assay in all cases: inhibition of tumour cell growth, NCI panel, 48 h
[1] = tested on: COLO 205 colon
[2] = tested on: SF-295 CNS
[3] = tested on: NCI-H226 lung
[4] = tested on: UACC-257 melanoma
[5] = tested on: HL-60(TB) leukemia
[6] = tested on: ACHN renal
[7] = tested on: SF-268 CNS
[8] = tested on: RPMI-8226 leukemia
[9] = tested on: SNB-75 CNS
[10] = tested on: CAKI-1 renal
[11] = tested on: MDA-MB-231 breast
[12] = tested on: U251 CNS
[13] = tested on: MCF7 breast
[14] = tested on: MDA-MB-435
[15] = tested on: RXF 393 renal
[16] = tested on: SNB-19 CNS
[17] = tested on: OVCAR-8 ovarian
[18] = tested on: MOLT-4 leukemia
[19] = tested on: SK-MEL-5 melanoma
[20] = tested on: SW-620 colon
[21] = tested on: OVCAR-5 ovarian
[22] = tested on: HOP-62 NSCLC
[23] = tested on: KM12 colon
[24] = tested on: OVCAR-3 ovarian
[25] = tested on: PC-3 prostate
[26] = tested on: HCT-15 colon
[27] = tested on: HCC-2998 colon
[28] = tested on: A549 NSCLC
[29] = tested on: DU-145 prostate
[30] = tested on: BT-549 breast
[31] = tested on: LOX IMVI melanoma
[32] = tested on: HT29 colon
[33] = tested on: TK-10 renal
[34] = tested on: IGROV1 ovarian
[35] = tested on: NCI-H522 lung
[36] = tested on: A498 renal
[37] = tested on: CCRF-CEM leukemia
[38] = tested on: EKVX NSCLC
[39] = tested on: HCT-116 colon
[40] = tested on: 786-0 renal
[41] = tested on: SK-MEL-28 melanoma
[42] = tested on: UO-31 renal
[43] = tested on: NCI-H460 lung
[44] = tested on: M14 melanoma
[45] = tested on: OVCAR-4 ovarian
[46] = tested on: SK-OV-3 ovarian
[47] = tested on: K-562 leukemia
[48] = tested on: SK-MEL-2 melanoma
[49] = tested on: MDA-N
[50] = tested on: NCI/ADR-RES ovarian
[51] = tested on: NCI-H23 lung
[52] = tested on: MALME-3M melanoma
[53] = tested on: UACC-62 melanoma
[54] = tested on: HS 578T breast
[55] = tested on: SF-539 CNS
[56] = tested on: SN12C renal
[57] = tested on: T-47D breast
[58] = tested on: HOP-92 NSCLC
[59] = tested on: SR leukemia

Molecule `COc1ccc(-c2csc(Cc3nc4ccccc4c(=O)n3-c3ccc(Cl)cc3)n2)cc1` has a TGI [1] of over 100 µM, a TGI [2] of over 100 µM and a TGI [3] of over 100 µM. For the same molecule, the TGI [4] was over 100 µM, the TGI [5] was over 100 µM and the TGI [6] was over 100 µM. It also gave a TGI [7] of over 100 µM, a TGI [8] of 45.8 µM and a TGI [9] of over 100 µM. The TGI [10] was over 100 µM, the TGI [11] was over 100 µM and the TGI [12] was over 100 µM. For the same molecule, the TGI [13] was over 100 µM, the TGI [14] was over 100 µM and the TGI [15] was over 100 µM. It also gave a TGI [16] of 77.7 µM, a TGI [17] of over 100 µM and a TGI [18] of 67.4 µM. It also gave a TGI [19] of 41.1 µM, a TGI [20] of over 100 µM and a TGI [21] of 62.1 µM. The TGI [22] was over 100 µM, the TGI [23] was over 100 µM and the TGI [24] was over 100 µM. For the same molecule, the TGI [25] was over 100 µM, the TGI [26] was 97.6 µM and the TGI [27] was over 100 µM. It also gave a TGI [28] of over 100 µM, a TGI [29] of over 100 µM and a TGI [30] of over 100 µM. For the same molecule, the TGI [31] was over 100 µM, the TGI [32] was over 100 µM and the TGI [33] was over 100 µM. It also gave a TGI [34] of over 100 µM, a TGI [35] of over 100 µM and a TGI [36] of over 100 µM. The TGI [37] was over 100 µM, the TGI [38] was 62.7 µM and the TGI [39] was 57.9 µM. It also gave a TGI [40] of over 100 µM, a TGI [41] of 59.5 µM and a TGI [42] of over 100 µM. It also gave a TGI [43] of over 100 µM, a TGI [44] of 65.1 µM and a TGI [45] of over 100 µM. For the same molecule, the TGI [46] was over 100 µM, the TGI [47] was 41.8 µM and the TGI [48] was 35.3 µM. The TGI [49] was 59 µM, the TGI [50] was over 100 µM and the TGI [51] was over 100 µM. The TGI [52] was over 100 µM, the TGI [53] was 68.3 µM and the TGI [54] was over 100 µM.
`OCCCNc1nccc(-c2c(-c3ccc(F)cc3)nn3cc(C(F)(F)F)ccc23)n1` was tested, and the GI50 [1] was 12.5 µM, the TGI [1] was over 25 µM and the GI50 [2] was 10.3 µM. It also gave a TGI [2] of over 25 µM, a GI50 [55] of over 25 µM and a TGI [55] of over 25 µM. For the same molecule, the GI50 [3] was 9.49 µM, the TGI [3] was over 25 µM and the GI50 [4] was over 23.4 µM. For the same molecule, the TGI [4] was over 25 µM, the GI50 [56] was 13.3 µM and the TGI [56] was over 25 µM. It also gave a GI50 [5] of over 19.6 µM, a TGI [5] of over 25 µM and a GI50 [6] of 9.23 µM. For the same molecule, the TGI [6] was over 25 µM, the GI50 [7] was 16.3 µM and the TGI [7] was over 25 µM. The GI50 [57] was 8.42 µM, the TGI [57] was over 23.4 µM and the GI50 [8] was 22.9 µM. The TGI [8] was over 25 µM, the GI50 [9] was over 13.4 µM and the TGI [9] was over 25 µM. For the same molecule, the GI50 [10] was over 21.7 µM, the TGI [10] was over 25 µM and the GI50 [11] was 24.6 µM. The TGI [11] was over 25 µM, the GI50 [12] was 19.3 µM and the TGI [12] was over 25 µM. The GI50 [13] was 15.1 µM, the TGI [13] was over 25 µM and the GI50 [14] was 10.1 µM. For the same molecule, the TGI [14] was over 25 µM, the GI50 [15] was 5.86 µM and the TGI [15] was 19.1 µM. For the same molecule, the GI50 [16] was over 25 µM, the TGI [16] was over 25 µM and the GI50 [17] was 16.9 µM. It also gave a TGI [17] of over 25 µM, a GI50 [18] of 14.3 µM and a TGI [18] of over 25 µM. It also gave a GI50 [19] of 8.4 µM, a TGI [19] of over 25 µM and a GI50 [20] of over 25 µM. The TGI [20] was over 25 µM, the GI50 [21] was over 22.9 µM and the TGI [21] was over 25 µM. It also gave a GI50 [22] of over 23.4 µM, a TGI [22] of over 25 µM and a GI50 [23] of 11.1 µM. It also gave a TGI [23] of over 25 µM, a GI50 [24] of 15.1 µM and a TGI [24] of over 25 µM. For the same molecule, the GI50 [25] was 15.1 µM, the TGI [25] was over 25 µM and the GI50 [58] was 8.1 µM. For the same molecule, the TGI [58] was over 25 µM, the GI50 [26] was 8.1 µM and the TGI [26] was over 25 µM. The GI50 [27] was over 23.4 µM, the TGI [27] was over 25 µM and the GI50 [28] was 17.3 µM. The TGI [28] was over 25 µM, the GI50 [29] was 12.9 µM and the TGI [29] was over 25 µM. The GI50 [30] was over 25 µM, the TGI [30] was over 25 µM and the GI50 [31] was 15.3 µM. It also gave a TGI [31] of over 25 µM, a GI50 [32] of 7.73 µM and a TGI [32] of over 25 µM. For the same molecule, the GI50 [33] was 15.9 µM, the TGI [33] was over 25 µM and the GI50 [34] was 12 µM. For the same molecule, the TGI [34] was over 25 µM, the GI50 [35] was 16.7 µM and the TGI [35] was over 25 µM. The GI50 [36] was 12.8 µM, the TGI [36] was over 25 µM and the GI50 [37] was 11.4 µM. For the same molecule, the TGI [37] was over 25 µM, the GI50 [38] was 20.5 µM and the TGI [38] was over 25 µM. For the same molecule, the GI50 [39] was 11.7 µM, the TGI [39] was over 25 µM and the GI50 [40] was 10.2 µM. It also gave a TGI [40] of over 25 µM, a GI50 [41] of 15.9 µM and a TGI [41] of over 25 µM. The GI50 [42] was 7.07 µM, the TGI [42] was over 25 µM and the GI50 [43] was 9.12 µM. For the same molecule, the TGI [43] was over 25 µM, the GI50 [44] was 15.4 µM and the TGI [44] was over 25 µM. It also gave a GI50 [45] of 10.8 µM, a TGI [45] of over 25 µM and a GI50 [46] of 13 µM. It also gave a TGI [46] of over 25 µM, a GI50 [47] of 10.4 µM and a TGI [47] of over 25 µM. For the same molecule, the GI50 [48] was over 23.1 µM, the TGI [48] was over 25 µM and the GI50 [50] was 8.25 µM. It also gave a TGI [50] of over 25 µM, a GI50 [51] of over 25 µM and a TGI [51] of over 25 µM. For the same molecule, the GI50 [59] was over 25 µM, the TGI [59] was over 25 µM and the GI50 [52] was 14.8 µM. For the same molecule, the TGI [52] was over 25 µM, the GI50 [53] was 15.1 µM and the TGI [53] was over 25 µM. For the same molecule, the GI50 [54] was 19.2 µM and the TGI [54] was over 25 µM.
Work on `COC(=O)C1=C(C(=O)Nc2cccnc2Cl)N(c2ccc(OC)cc2[N+](=O)[O-])C(c2ccc(C)cc2)=CC1c1ccc(OC)cc1OC` (stereo not drawn) yielded a TGI [1] of 31.9 µM, a TGI [2] of over 100 µM and a TGI [55] of 16.7 µM. For the same molecule, the TGI [3] was 38.1 µM, the TGI [4] was over 100 µM and the TGI [56] was 35 µM. The TGI [5] was 52.5 µM, the TGI [6] was over 81.6 µM and the TGI [7] was 78.5 µM. The TGI [57] was 88.3 µM, the TGI [8] was 21.5 µM and the TGI [9] was 72.3 µM. The TGI [10] was over 100 µM, the TGI [11] was 62.1 µM and the TGI [12] was 40.3 µM. For the same molecule, the TGI [13] was 22.4 µM, the TGI [14] was over 100 µM and the TGI [15] was 22.2 µM. For the same molecule, the TGI [16] was over 88.6 µM, the TGI [17] was 31.1 µM and the TGI [18] was 49.3 µM. For the same molecule, the TGI [19] was over 73.3 µM, the TGI [20] was 22.7 µM and the TGI [21] was over 84.9 µM. It also gave a TGI [22] of 68 µM, a TGI [23] of 16.3 µM and a TGI [24] of 43.7 µM. The TGI [25] was over 100 µM, the TGI [58] was over 100 µM and the TGI [26] was 49.8 µM. The TGI [27] was 27.8 µM, the TGI [28] was 40.9 µM and the TGI [29] was over 90.1 µM. For the same molecule, the TGI [30] was over 100 µM, the TGI [31] was 17 µM and the TGI [32] was 47.9 µM. For the same molecule, the TGI [33] was over 64.2 µM, the TGI [34] was 33.7 µM and the TGI [35] was 26.3 µM. For the same molecule, the TGI [36] was 50.6 µM, the TGI [37] was over 36.8 µM and the TGI [38] was over 81.9 µM. It also gave a TGI [39] of 98.7 µM, a TGI [40] of over 87.7 µM and a TGI [41] of over 100 µM. The TGI [42] was over 76.2 µM, the TGI [43] was over 79.3 µM and the TGI [44] was over 72.5 µM. For the same molecule, the TGI [45] was over 100 µM, the TGI [46] was 62.9 µM and the TGI [47] was over 100 µM. The TGI [48] was 65 µM, the TGI [50] was 47.5 µM and the TGI [51] was over 85 µM. It also gave a TGI [59] of 21.6 µM, a TGI [52] of 53.3 µM and a TGI [53] of over 100 µM. The TGI [54] was 67.4 µM.
